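Grown in 96-well plates, cells were treated for 48 hours with each compound at five concentrations. Insufficient inhibition: endpoint recorded as highest concentration tested. The concentration for 50% growth inhibition is given as GI50. Definition used: TGI = concentration required for complete inhibition of growth.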
How the values were obtained:
Experiment in all cases: NCI tumour cell line growth inhibition, 48 h
OVCAR-8 ovarian = test system: OVCAR-8 ovarian
NCI-H460 lung = test system: NCI-H460 lung
CCRF-CEM leukemia = test system: CCRF-CEM leukemia
SNB-75 CNS = test system: SNB-75 CNS
A498 renal = test system: A498 renal
COLO 205 colon = test system: COLO 205 colon
PC-3 prostate = test system: PC-3 prostate
HOP-62 NSCLC = test system: HOP-62 NSCLC
IGROV1 ovarian = test system: IGROV1 ovarian
K-562 leukemia = test system: K-562 leukemia
MDA-MB-231 breast = test system: MDA-MB-231 breast
DU-145 prostate = test system: DU-145 prostate
HL-60(TB) leukemia = test system: HL-60(TB) leukemia
HCT-15 colon = test system: HCT-15 colon
HS 578T breast = test system: HS 578T breast
SF-295 CNS = test system: SF-295 CNS
SNB-19 CNS = test system: SNB-19 CNS
OVCAR-5 ovarian = test system: OVCAR-5 ovarian
LOX IMVI melanoma = test system: LOX IMVI melanoma
M14 melanoma = test system: M14 melanoma
NCI/ADR-RES ovarian = test system: NCI/ADR-RES ovarian
OVCAR-4 ovarian = test system: OVCAR-4 ovarian
CAKI-1 renal = test system: CAKI-1 renal
U251 CNS = test system: U251 CNS
786-0 renal = test system: 786-0 renal
UACC-257 melanoma = test system: UACC-257 melanoma
RPMI-8226 leukemia = test system: RPMI-8226 leukemia
OVCAR-3 ovarian = test system: OVCAR-3 ovarian
SK-MEL-5 melanoma = test system: SK-MEL-5 melanoma
SR leukemia = test system: SR leukemia
SF-268 CNS = test system: SF-268 CNS
SK-MEL-28 melanoma = test system: SK-MEL-28 melanoma
KM12 colon = test system: KM12 colon
NCI-H23 lung = test system: NCI-H23 lung
MCF7 breast = test system: MCF7 breast
A549 NSCLC = test system: A549 NSCLC
NCI-H522 lung = test system: NCI-H522 lung
NCI-H226 lung = test system: NCI-H226 lung
T-47D breast = test system: T-47D breast
HT29 colon = test system: HT29 colon
MOLT-4 leukemia = test system: MOLT-4 leukemia
BT-549 breast = test system: BT-549 breast
SK-MEL-2 melanoma = test system: SK-MEL-2 melanoma
SK-OV-3 ovarian = test system: SK-OV-3 ovarian
HCT-116 colon = test system: HCT-116 colon
SN12C renal = test system: SN12C renal
ACHN renal = test system: ACHN renal
SF-539 CNS = test system: SF-539 CNS
SW-620 colon = test system: SW-620 colon
MDA-MB-435 = test system: MDA-MB-435
UO-31 renal = test system: UO-31 renal

For c1ccc(COCC[P+](c2ccccc2)(c2ccccc2)c2ccccc2)cc1, the GI50 (OVCAR-8 ovarian) was 1.67 µM, the TGI (OVCAR-8 ovarian) was 10.8 µM and the GI50 (NCI-H460 lung) was 1.5 µM. It also gave a TGI (NCI-H460 lung) of 10.7 µM, a GI50 (CCRF-CEM leukemia) of 1.36 µM and a TGI (CCRF-CEM leukemia) of 14.1 µM. The GI50 (SNB-75 CNS) was 1.44 µM, the TGI (SNB-75 CNS) was 6.76 µM and the GI50 (A498 renal) was 1.33 µM. The TGI (A498 renal) was 5.93 µM, the GI50 (COLO 205 colon) was 0.868 µM and the TGI (COLO 205 colon) was 3.65 µM. The GI50 (PC-3 prostate) was 0.519 µM, the TGI (PC-3 prostate) was 5.32 µM and the GI50 (HOP-62 NSCLC) was 3.59 µM. It also gave a TGI (HOP-62 NSCLC) of 32.4 µM, a GI50 (IGROV1 ovarian) of 1.08 µM and a TGI (IGROV1 ovarian) of 11.9 µM. It also gave a GI50 (K-562 leukemia) of 0.383 µM, a TGI (K-562 leukemia) of 16 µM and a GI50 (MDA-MB-231 breast) of 2.36 µM. It also gave a TGI (MDA-MB-231 breast) of 14.2 µM, a GI50 (DU-145 prostate) of 2.01 µM and a TGI (DU-145 prostate) of 26.2 µM. The GI50 (HL-60(TB) leukemia) was 0.29 µM, the TGI (HL-60(TB) leukemia) was 1.39 µM and the GI50 (HCT-15 colon) was 14.2 µM. For the same compound, the TGI (HCT-15 colon) was > 100 µM, the GI50 (HS 578T breast) was 2.81 µM and the TGI (HS 578T breast) was 17.9 µM. The GI50 (SF-295 CNS) was 1.39 µM, the TGI (SF-295 CNS) was 6.64 µM and the GI50 (SNB-19 CNS) was 1.03 µM. The TGI (SNB-19 CNS) was 10.7 µM, the GI50 (OVCAR-5 ovarian) was 2.85 µM and the TGI (OVCAR-5 ovarian) was > 100 µM. The GI50 (LOX IMVI melanoma) was 1.87 µM, the TGI (LOX IMVI melanoma) was 6.05 µM and the GI50 (M14 melanoma) was 2.12 µM. For the same compound, the TGI (M14 melanoma) was 13.4 µM, the GI50 (NCI/ADR-RES ovarian) was 19.7 µM and the TGI (NCI/ADR-RES ovarian) was 57.1 µM. For the same compound, the GI50 (OVCAR-4 ovarian) was 0.444 µM, the TGI (OVCAR-4 ovarian) was 12.2 µM and the GI50 (CAKI-1 renal) was 5.4 µM. It also gave a TGI (CAKI-1 renal) of 23.1 µM, a GI50 (U251 CNS) of 0.869 µM and a TGI (U251 CNS) of 11.7 µM. The GI50 (786-0 renal) was 3.49 µM, the TGI (786-0 renal) was 15.6 µM and the GI50 (UACC-257 melanoma) was 0.378 µM. For the same compound, the TGI (UACC-257 melanoma) was 3.77 µM, the GI50 (RPMI-8226 leukemia) was 0.242 µM and the TGI (RPMI-8226 leukemia) was 1.9 µM. The GI50 (OVCAR-3 ovarian) was 1.07 µM, the TGI (OVCAR-3 ovarian) was 17.8 µM and the GI50 (SK-MEL-5 melanoma) was 0.396 µM. It also gave a TGI (SK-MEL-5 melanoma) of 1.61 µM, a GI50 (SR leukemia) of 0.725 µM and a TGI (SR leukemia) of 11 µM. For the same compound, the GI50 (SF-268 CNS) was 3.17 µM, the TGI (SF-268 CNS) was 23.1 µM and the GI50 (SK-MEL-28 melanoma) was 1.59 µM. For the same compound, the TGI (SK-MEL-28 melanoma) was 12.2 µM, the GI50 (KM12 colon) was 0.501 µM and the TGI (KM12 colon) was 11.1 µM. It also gave a GI50 (NCI-H23 lung) of 0.664 µM, a TGI (NCI-H23 lung) of 6.75 µM and a GI50 (MCF7 breast) of 0.564 µM. The TGI (MCF7 breast) was 7.27 µM, the GI50 (A549 NSCLC) was 0.584 µM and the TGI (A549 NSCLC) was 10.1 µM. It also gave a GI50 (NCI-H522 lung) of 0.467 µM, a TGI (NCI-H522 lung) of 4.17 µM and a GI50 (NCI-H226 lung) of 1.22 µM. For the same compound, the TGI (NCI-H226 lung) was 29.8 µM, the GI50 (T-47D breast) was 0.259 µM and the TGI (T-47D breast) was 21.6 µM. For the same compound, the GI50 (HT29 colon) was 0.478 µM, the TGI (HT29 colon) was 8.3 µM and the GI50 (MOLT-4 leukemia) was 2.1 µM. It also gave a TGI (MOLT-4 leukemia) of 12.4 µM, a GI50 (BT-549 breast) of 0.953 µM and a TGI (BT-549 breast) of 15.5 µM. The GI50 (SK-MEL-2 melanoma) was 1.93 µM, the TGI (SK-MEL-2 melanoma) was 4.96 µM and the GI50 (SK-OV-3 ovarian) was 2.33 µM. The TGI (SK-OV-3 ovarian) was 9.93 µM, the GI50 (HCT-116 colon) was 0.679 µM and the TGI (HCT-116 colon) was 12.5 µM. It also gave a GI50 (SN12C renal) of 2.3 µM, a TGI (SN12C renal) of 11.3 µM and a GI50 (ACHN renal) of 4.56 µM. For the same compound, the TGI (ACHN renal) was 23.5 µM, the GI50 (SF-539 CNS) was 2.4 µM and the TGI (SF-539 CNS) was 14.5 µM. It also gave a GI50 (SW-620 colon) of 1.83 µM, a TGI (SW-620 colon) of 37.7 µM and a GI50 (MDA-MB-435) of 0.601 µM. The TGI (MDA-MB-435) was 6.28 µM, the GI50 (UO-31 renal) was 4.82 µM and the TGI (UO-31 renal) was 28.4 µM.

Reference: PubChem BioAssay (NCI)
